Laboratory results reported in patent publication US20240417387A1, “SULFONYLPIPERAZINYL COMPOUNDS FOR TREATMENT OF BACTERIAL INFECTIONS” (Hoffmann-La Roche Inc., priority 2021, published 2024).
≈ marks a conversion by molar mass, not a printed value. Read-outs that look alike come from different tables or passages of the source.

Tests used:
[1] = test system: Escherichia coli BW 25113; test: Minimal Inhibitory Concentration (MIC) broth dilution assay, E. coli BW 25113; type: cell-based; settings: Escherichia coli, BW25113, 20 hours at 35° C., CAMHB, read-out: MIC E. coli K-12 BW 25113
Procedure: (§1) The antibacterial activity of molecules was evaluated against the commonly used quality control strain Escherichia coli BW 25113, Escherichia coli ATCC 25922 and the rifampin-resistant mutant strain Klebsiella pneumonia ATCC 43816. Escherichia co/i BW 25113 was obtained from the Coli Genetic Stock Center (CGSC) (strain 7636). Both Escherichia coli ATCC 25922 and Klebsiella pneumonia ATCC 43816 were originally derived from human clinical samples and are available from ATCC (American Type Culture Collection). The in vitro potency of compounds to inhibit Escherichia coli (BW 25113, ATCC 25922) and Klebsiella pneumonia (ATCC 43816) growth was assessed by the MIC (Minimal Inhibitory Concentration) broth dilution method. Specifically compound dilutions were prepared from 10 mM DMSO stock solutions as follows: i) serial 2-fold dilution in 20 μL DMSO were prepared in a master plate (Greiner, Cat No: 651201), ii) 180 μL sterile distilled water was added to each aliquot and iii) 10 μL diluted compounds were transferred into a new assay plate (Costar, 3599).
(§2) Vials of each test microorganisms were maintained frozen in the vapor phase of a liquid nitrogen freezer. Single-use frozen vials of the three strains Escherichia coli BW 25113, Escherichia coli ATCC 25922 (KWTKSTTK, 0335K) and Klebsiella pneumonia ATCC 43816, with predetermined CFU/mL, were taken out from the freezer, thawed at room temperature, and diluted in Cation-Adjusted Mueller Hinton Broth (CAMVIHB) to achieve a final inoculum of 5×10^5 CFU/mL. 90 μL bacteria containing broth was dispensed to the assay plate containing the pre-dispensed compound dilutions and mixed by pipetting 5 times.
(§3) Then the assay plates were incubated for 20 hours at 35° C. in ambient air. Following incubation, the MIC […], the lowest concentration of drug that inhibits visible growth of the microorganism was read with the help of a magnification mirror and recorded.

[2] = molecular target: Escherichia coli UDP-2,3-diacylglucosamine hydrolase (LpxH) (Escherichia coli (strain K12), UniProt P43341); test: Enzymatic IC50 assay of Escherichia coli LpxH (UMP/CMP-Glo luminescence); type: biochemical; settings: Enzymatic IC50 against Escherichia coli LpxH; read-out: IC50 (converted)
Sequence of Escherichia coli UDP-2,3-diacylglucosamine hydrolase (LpxH) (P43341 whole entry): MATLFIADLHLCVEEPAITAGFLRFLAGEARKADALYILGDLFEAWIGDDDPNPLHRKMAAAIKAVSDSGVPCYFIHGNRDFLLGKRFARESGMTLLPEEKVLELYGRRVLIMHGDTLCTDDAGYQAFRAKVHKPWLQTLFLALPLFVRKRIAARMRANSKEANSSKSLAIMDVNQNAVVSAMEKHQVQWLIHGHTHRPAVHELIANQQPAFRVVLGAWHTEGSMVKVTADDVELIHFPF
Procedure: The inhibitory potency of compounds of Escherichia coli UDP-2,3-diacylglucosamine hydrolase (LpxH) was determined in an enzymatic assay. UDP-2,3-diacylglucosamine (UDP-DAG) was purified from the Caulobacter crescentus LpxI D225A mutant protein that contained a tightly bound UDP-DAG molecule. The enzyme was diluted using assay buffer containing 50 mM NaCl, 20 mM Tris-HCl pH7.5, 2.5 mM MnCl2, 0.01% Triton X-100.1 mg/mL BSA, and the final concentration is 2 nM. The compounds were diluted by Agilent liquid handler Bravo, the compound's serial dilution dose ranges from 100 μM to 1.7 nM. Then the enzyme and compounds mixture were incubated at room temperature for 10 mins. The enzymatic assay was started by adding UDP-DAG (FAC is 5 μM) and incubated for 20 mins at room temperature. The plate was then heated to 95° C. for 15 mins on a water batch to stop the reaction. The hydrolysis of UDP-DAG by LpxH yielded 2,3-diacylglucosamine 1-phosphate (lipid X) and UMP, which was converted to ATP and quantified by the luciferase reaction using the UMP/CMP-Glo™ Glycosyltransferase Assay kit from Promega. The compound's inhibitory effect of LpxH is determined by measuring the light change using a luminometer (Envision).

[3] = test system: Klebsiella pneumonia ATCC 43816; test: Minimal Inhibitory Concentration (MIC) broth dilution assay, K. pneumonia ATCC 43816; type: cell-based; settings: Klebsiella pneumoniae, ATCC43816, 20 hours at 35° C., CAMHB, read-out: MIC K. p ATCC 43816
Procedure: as §1, §2, §3

[4] = test system: Escherichia coli ATCC 25922; test: Minimal Inhibitory Concentration (MIC) broth dilution assay, E. coli ATCC 25922; type: cell-based; settings: Escherichia coli
Procedure: as §1, §2, §3

[5] = Human microsome stability assay; type: in vitro ADME; settings: human liver microsomes 0.5 mg/mL, 37° C., pH 7.4, NADPH regenerating system
Procedure: The human microsomal stability assay is used for early assessment of metabolic stability of a test compound in human liver microsomes.
Human liver microsomes (Cat.NO.: 452117, Corning, USA) were preincubated with test compound for 10 minutes at 37° C. in 100 mM potassium phosphate buffer, pH 7.4. The reactions were initiated by adding NADPH regenerating system. The final incubation mixtures contained 1 µM test compound, 0.5 mg/mL liver microsomal protein, 1 mM MgCl2, 1 mM NADP, 1 unit/mL isocitric dehydrogenase and 6 mM isocitric acid in 100 mM potassium phosphate buffer, pH 7.4. After incubation times of 0, 3, 6, 9, 15 and 30 minutes at 37° C., 300 μL of cold acetonitrile (including internal standard) was added to 100 μL incubation mixture to terminate the reaction. Following precipitation and centrifugation, the amount of compound remaining in the samples were determined by LC-MS/MS. Controls of no NADPH regenerating system at zero and 30 minutes were also prepared and analyzed. […] (Human microsome clearance: <7 mL/min/kg: low; 7-16.2 mL/min/kg: medium; >16.2 mL/min/kg: high)

[6] = ATCC25922, 20 h, read-out: MIC E. coli ATCC 25922
[7] = ATCC25922, read-out: MIC E. coli ATCC 25922, broth dilution, 20 hours at 35° C., CAMHB, read-out: MIC E. coli K-12 ATCC 25922

Row | Compound | MIC [1] | IC50 [2] | MIC [3] | MIC [4, 6] | MIC [4, 7] | Clearance of Human microsome [5]
1 | N[C@@H]1CC(=O)N(c2ccc(S(=O)(=O)N3CCN(c4cc(C(F)(F)[C@H]5CC[C@@H](C(=O)NCCCO)CC5)cc(Cl)n4)CC3)cc2)C1 [Example 032] | 3.3 µg/mL (≈ 4.93 µM) | < 2.99 nM | 2.2 µg/mL (≈ 3.29 µM) | 2.2 µg/mL (≈ 3.29 µM) |  | 
2 | NCC(N)CNC(=O)[C@H]1CC[C@H](C(F)(F)c2cc(Cl)nc(N3CCN(S(=O)(=O)c4ccc(N5C[C@H](N)CC5=O)cc4)CC3)c2)CC1 (stereo partly drawn) [Example 077, Trans-4-[[2-chloro-6-[4-[4-[(4R)-4-amino-2-oxo-pyrrolidin-1-yl]phenyl]sulfonylpiperazin-1-yl]-4-pyridyl]-difluoro-methyl]-N-(2,3-diaminopropyl)cyclohexanecarboxamide] | 2.2 µg/mL (≈ 3.22 µM) | 2.93 nM | 2.2 µg/mL (≈ 3.22 µM) |  | 2.2 µg/mL (≈ 3.22 µM) | 
3 | NCC(=O)NNC(=O)[C@H]1CC[C@H](C(F)(F)c2cc(Cl)nc(N3CCN(S(=O)(=O)c4ccc(N5C[C@H](N)CC5=O)cc4)CC3)c2)CC1 [Example 050, Trans-N′-(2-aminoacetyl)-4-[[2-chloro-6-[4-[4-[(4R)-4-amino-2-oxo-pyrrolidin-1-yl]phenyl]sulfonylpiperazin-1-yl]-4-pyridyl]-difluoro-methyl]cyclohexanecarbohydrazide] | 2.1 µg/mL (≈ 3.07 µM) | 2.93 nM | 1.1 µg/mL (≈ 1.61 µM) |  | 1.1 µg/mL (≈ 1.61 µM) | 
4 | CNC(=O)c1ccc(C(F)(F)c2cc(Cl)nc(N3CCN(S(=O)(=O)c4ccc(N5CC(NCCCN)CC5=O)cc4)CC3)c2)cc1 (stereo not drawn) [Example 078, 4-[[2-[4-[4-[4-(3-Aminopropylamino)-2-oxo-pyrrolidin-1-yl]phenyl]sulfonylpiperazin-1-yl]-6-chloro-4-pyridyl]-difluoro-methyl]-N-methyl-benzamide] | 1.4 µg/mL (≈ 2.07 µM) | 5.92 nM | 2.1 µg/mL (≈ 3.11 µM) |  | 2.8 µg/mL (≈ 4.14 µM) | 
5 | COC(=O)[C@H]1CC[C@H](C(F)(F)c2cc(Cl)nc(N3CCN(S(=O)(=O)c4ccc(N5CC(N)CC5=O)cc4)CC3)c2)CC1 (stereo partly drawn) [Example 001, Trans-methyl 4-[[2-[4-[4-(4-amino-2-oxo-pyrrolidin-1-yl)phenyl]sulfonylpiperazin-1-yl]-6-chloro-4-pyridyl]-difluoro-methyl]cyclohexanecarboxylate] | 0.49 µg/mL (≈ 0.783 µM) | 3.19 nM | 0.98 µg/mL (≈ 1.57 µM) | 0.98 µg/mL (≈ 1.57 µM) |  | 
6 | NCCNC(=O)c1ccc(C(F)(F)c2cc(Cl)nc(N3CCN(S(=O)(=O)c4ccc(N5CC(N)CC5=O)cc4)CC3)c2)cc1 (stereo not drawn) [Example 017, N-(2-aminoethyl)-4-[[2-[4-[4-(4-amino-2-oxo-pyrrolidin-1-yl)phenyl]sulfonylpiperazin-1-yl]-6-chloro-4-pyridyl]-difluoro-methyl]benzamide] | 0.35 µg/mL (≈ 0.54 µM) |  | 0.45 µg/mL (≈ 0.694 µM) | 0.3 µg/mL (≈ 0.463 µM) |  | 9.36 mL/min/kg
7 | NCCCNC(=O)C12CC(C(F)(F)c3cc(Cl)nc(N4CCN(S(=O)(=O)c5ccc(N6C[C@H](N)CC6=O)cc5)CC4)c3)(C1)C2 [Example 040] |  | 6.13 nM |  |  |  | 6.15 mL/min/kg
8 | N[C@@H]1CC(=O)N(c2ccc(S(=O)(=O)N3CCN(c4cc(C(F)(F)c5cnc(C(=O)NCCN6CCOCC6)cn5)cc(Cl)n4)CC3)cc2)C1 [Example 025, 5-[[2-chloro-6-[4-[4-[(4R)-4-amino-2-oxo-pyrrolidin-1-yl]phenyl]sulfonylpiperazin-1-yl]-4-pyridyl]-difluoro-methyl]-N-(2-morpholinoethyl)pyrazine-2-carboxamide] |  | < 2.78 nM |  |  |  | 
9 | C[N+](C)(CCCN)CCCNC(=O)[C@H]1CC[C@H](C(F)(F)c2cc(Cl)nc(N3CCN(S(=O)(=O)c4ccc(N5C[C@H](N)CC5=O)cc4)CC3)c2)CC1 [Example 084, Trans-3-[[4-[[2-[4-[4-[(4R)-4-amino-2-oxo-pyrrolidin-1-yl]phenyl]sulfonylpiperazin-1-yl]-6-chloro-4-pyridyl]-difluoro-methyl]cyclohexanecarbonyl]amino]propyl-(3-aminopropyl)-dimethyl-ammonium] | 0.48 µg/mL |  | 0.81 µg/mL | 0.48 µg/mL |  | 9.7 mL/min/kg
10 | C[N+](CCN)(CCN)CCCNC(=O)[C@H]1CC[C@H](C(F)(F)c2cc(Cl)nc(N3CCN(S(=O)(=O)c4ccc(N5C[C@H](N)CC5=O)cc4)CC3)c2)CC1 [Example 065, Trans-bis(2-aminoethyl)-[3-[[4-[[2-[4-[4-[(4R)-4-amino-2-oxo-pyrrolidin-1-yl]phenyl]sulfonylpiperazin-1-yl]-6-chloro-4-pyridyl]-difluoro-methyl]cyclohexanecarbonyl]amino]propyl]-methyl-ammonium] | 0.66 µg/mL |  | 0.66 µg/mL | 0.66 µg/mL |  | 8.21 mL/min/kg
11 | NC(=O)CNC(=O)[C@H]1CC[C@@H](C(F)(F)c2cc(Cl)nc(N3CCN(S(=O)(=O)c4ccc(N5C[C@H](N)CC5=O)cc4)CC3)c2)CC1 [Example 063, Cis-N-(2-amino-2-oxo-ethyl)-4-[[2-chloro-6-[4-[4-[(4R)-4-amino-2-oxo-pyrrolidin-1-yl]phenyl]sulfonylpiperazin-1-y1]-4-pyridyl]-difluoro-methyl]cyclohexanecarboxamide] |  | 5.99 nM |  |  |  | 
12 | NCCCNC(=O)C1C[C@@H]2CC[C@H]1CC2C(F)(F)c1cc(Cl)nc(N2CCN(S(=O)(=O)c3ccc(N4C[C@H](N)CC4=O)cc3)CC2)c1 (stereo partly drawn) [Example 053] | 0.55 µg/mL (≈ 0.792 µM) |  | 0.54 µg/mL (≈ 0.778 µM) | 0.57 µg/mL (≈ 0.821 µM) |  | 6.15 mL/min/kg
13 | Cc1cc(C(F)(F)[C@H]2CC[C@H](C(=O)NCCCN)CC2)nc(N2CCN(S(=O)(=O)c3ccc(N4C[C@H](N)CC4=O)cc3)CC2)n1 [Example 054, Trans-N-(3-aminopropyl)-4-[difluoro-[6-methyl-2-[4-[4-[(4R)-4-amino-2-oxo-pyrrolidin-1-yl]phenyl]sulfonylpiperazin-1-yl]pyrimidin-4-yl]methyl]cyclohexanecarboxamide] |  | 37 nM |  |  |  | 
14 | NCCNCCNC(=O)c1ccc(C(F)(F)c2cc(Cl)nc(N3CCN(S(=O)(=O)c4ccc(N5C[C@H](N)CC5=O)cc4)CC3)c2)nc1 [Example 028, N-[2-(2-aminoethylamino)ethyl]-6-[[2-chloro-6-[4-[4-[(4R)-4-amino-2-oxo-pyrrolidin-1-yl]phenyl]sulfonylpiperazin-1-yl]-4-pyridyl]-difluoro-methyl]pyridine-3-carboxamide] | 1.6 µg/mL (≈ 2.31 µM) | 20.2 nM | 1.6 µg/mL (≈ 2.31 µM) |  | 1.6 µg/mL (≈ 2.31 µM) | 
